Data reported in US8536354B2, “Steroidal ligands and their use in gene switch modulation” (Intrexon Corporation, priority 2008, dated 2013).
Entries after “also recorded” stand apart in the source; their conditions may differ.

How the values were obtained:
[1] = tested on: EcRs (lepidopteran and non-lepidopteran); assay: Two-hybrid gene switch assays, statements across the set of ten EcRs in NIH3T3 cells
[2] = tested on: D. melanogaster BII cell line (expresses the ecdysteroid receptor complex EcR-USP); assay: Drosophila melanogaster BII cell line bioassay (turbidometric; agonist and antagonist versions); conditions: Drosophila BII cell line, Example Two

CC(C)(O)C(CCC(C)(O)C1CCC2(O)C3=CC(=O)C4CC(O)C(O)CC4(C)C3CCC12C)OC(=O)c1ccc[nH]1 (centres unmarked) [canescensterone]
selectivity / relative potency between EcRs [1]: selective for non-lepidopteran EcRs; also recorded: BaEcR>E274V/V390I/Y410E mutant-CfEcR
EC50 [2]: 0.53 nM
